Assay results taken from patent US10308644B2, “Heterocyclic compounds as immunomodulators” (Incyte Corporation, priority 2016, dated 2019).

Molecular target: PD-1/PD-L1 (Homo sapiens (Human), UniProt Q9NZQ7)
Assay: PD-1/PD-L1 Homogeneous Time-Resolved Fluorescence (HTRF) Binding Assay
Conditions: recombinant human PD-1 (3 nM) and PD-L1 (10 nM), 25° C., PBS pH 7.4
Procedure, shortened: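 Fc-tagged human PD-1 (25-167, 3 nM) and His-tagged PD-L1 (19-238, 10 nM) preincubated with inhibitor 40 min in PBS pH 7.4, 0.05% Tween-20, 0.1% BSA, 1% DMSO, 25 °C. Binding detected by HTRF (Eu anti-IgG/APC anti-His, 665/620 nm) after 60 min; IC50 from percent control activity.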

PD-1/PD-L1, sequence (Q9NZQ7 19-238): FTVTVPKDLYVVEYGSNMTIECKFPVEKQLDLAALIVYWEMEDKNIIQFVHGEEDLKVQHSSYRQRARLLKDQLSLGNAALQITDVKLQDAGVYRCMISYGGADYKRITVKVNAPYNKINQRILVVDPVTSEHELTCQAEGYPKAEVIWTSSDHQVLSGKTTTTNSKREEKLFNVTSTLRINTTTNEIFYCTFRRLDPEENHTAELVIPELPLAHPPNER

IC50 | SMILES
≤ 0.01 µM | Cc1c(-c2nc3cc(CN4CC5(CC(C(=O)O)C5)C4)cc(C#N)c3o2)cccc1-c1cccc(-c2nc3c(s2)CN(C(=O)CN(C)CCO)C3)c1C [Example 230, 2-((7-cyano-2-(3′-(5-(2-((2-hydroxyethyl)(methyl)amino)acetyl)-5,6-dihydro-4H-pyrrolo[3,4-d]thiazol-2-yl)-2,2′-dimethylbiphenyl-3-yl)benzo[d]oxazol-5-yl)methyl)-2-azaspiro[3.3]heptane-6-carboxylic acid]
≤ 0.01 µM | CCN1CCc2cn(-c3cccc(-c4cccc(-c5nc6cc(CN7CC[C@@H](C(=O)O)C7)cc(C#N)c6o5)c4C)c3Cl)nc2C1 [Example 58, (R)-1-((2-(2′-chloro-3′-(6-ethyl-4,5,6,7-tetrahydro-2H-pyrazolo[3,4-c]pyridin-2-yl)-2-methylbiphenyl-3-yl)-7-cyanobenzo[d]oxazol-5-yl)methyl)pyrrolidine-3-carboxylic acid]
≤ 0.01 µM | Cc1c(Nc2nccc3cc(CN(C)CCO)cnc23)cccc1-c1cccc(-c2nc3cc(CN4CC[C@@](C)(C(=O)O)C4)cc(C#N)c3o2)c1C [Example 190, (R)-1-((7-cyano-2-(3′-(3-(((2-hydroxyethyl)(methyl)amino)methyl)-1,7-naphthyridin-8-ylamino)-2,2′-dimethylbiphenyl-3-yl)benzo[d]oxazol-5-yl)methyl)-3-methylpyrrolidine-3-carboxylic acid]

SMILES | IC50
Cc1c(Nc2nccc3cc(CN4CC[C@H](O)C4)cnc23)cccc1-c1cccc(-c2nc3cc(CN4CC[C@@H](C(=O)O)C4)cc(C#N)c3o2)c1C [Example 26, (R)-1-((7-cyano-2-(3′-(3-(((S)-3-hydroxypyrrolidin-1-yl)methyl)-1,7-naphthyridin-8-ylamino)-2,2′-dimethylbiphenyl-3-yl)benzo[d]oxazol-5-yl)methyl)pyrrolidine-3-carboxylic acid] | ≤ 0.01 µM
